Values quoted from earlier work as cited in US11878081B1, “Pharmaceutical formulations of tafamidis” (TaP Pharmaceuticals, AG, priority 2022, dated 2024).
Like-named read-outs stand apart in the source and are kept apart here.

Tests used:
[1] = as stated by the '116 publication
[2] = 20 mg in 3.0 mL, equilibration 1 h, UHPLC
[3] = capsule formulation of Table B/C, 61 mg, pH 6.8 PBS 900 ml, paddle 50 RPM, 37° C.

stability [1] | solubility [1] | stability ([1]; listed as tafamidis form 1) | concentration of tafamidis in saturated solution (solubility) ([2]; FaSSIF) | concentration of tafamidis in saturated solution (solubility) ([2]; FeSSIF) | concentration of tafamidis in saturated solution (solubility) ([2]; SGF) | Cumulative drug release ([3]; 0 min) | Cumulative drug release ([3]; 5 min) | Cumulative drug release ([3]; 10 min) | Cumulative drug release ([3]; 15 min) | Cumulative drug release ([3]; 20 min) | Cumulative drug release ([3]; 30 min) | Cumulative drug release ([3]; 45 min) | Cumulative drug release ([3]; 60 min) | Compound
unstable | – | – | – | – | – | – | – | – | – | – | – | – | – | O=C(O)c1ccc2nc(-c3cc(Cl)cc(Cl)c3)oc2c1 [form 4, 2-(3,5-dichlorophenyl)-1,3-benzoxazole-6-carboxylic acid]
– | low solubility | more stable than forms 2, 4, and 6 | 9.0 µg/mL | 0.6 µg/mL | 1.5 µg/mL | 0.0% | 14.0% | 27.3% | 29.1% | 28.1% | 27.6% | 26.8% | 21.8% | O=C(O)c1ccc2nc(-c3cc(Cl)cc(Cl)c3)oc2c1 [‘441 patent's tafamidis crystal form 1, 2-(3,5-dichlorophenyl)-1,3-benzoxazole-6-carboxylic acid]
